# Test results as given in US20190060337A1, “COMPOSITIONS COMPRISING BETA-GLUCOGALLIN AND THERAPEUTIC APPLICATIONS THEREOF IN CONTROLLED KINETICS OF CARBOHYDRATE BREAKDOWN AND MONOSACCHARIDE ABSORPTION” (priority 2017, published 2019).
# Test: Toxicity (LD50)
# Conditions: in vivo
smiles,measurement,value
"O=C(O[C@@H]1O[C@H](CO)[C@@H](O)[C@H](O)[C@H]1O)c1cc(O)c(O)c(O)c1 [β-glucogallin, 1-O-galloyl-β-D-glucose]",LD50,approx. 2000 mg/kg bodyweight
